{
  "source": "paper PMC10045904",
  "about": "“Polyphenol Profile of Cistus × incanus L. and Its Relevance to Antioxidant Effect and α-Glucosidase Inhibition” (Antioxidants, 2023)",
  "key": {"[1]": {"biological_target": "T1, α-glucosidase from Saccharomyces cerevisiae (Saccharomyces cerevisiae, UniProt P53341)", "T1 construct": "purchased Sigma-Aldrich (Germany)", "T1 sequence (P53341 whole entry)": "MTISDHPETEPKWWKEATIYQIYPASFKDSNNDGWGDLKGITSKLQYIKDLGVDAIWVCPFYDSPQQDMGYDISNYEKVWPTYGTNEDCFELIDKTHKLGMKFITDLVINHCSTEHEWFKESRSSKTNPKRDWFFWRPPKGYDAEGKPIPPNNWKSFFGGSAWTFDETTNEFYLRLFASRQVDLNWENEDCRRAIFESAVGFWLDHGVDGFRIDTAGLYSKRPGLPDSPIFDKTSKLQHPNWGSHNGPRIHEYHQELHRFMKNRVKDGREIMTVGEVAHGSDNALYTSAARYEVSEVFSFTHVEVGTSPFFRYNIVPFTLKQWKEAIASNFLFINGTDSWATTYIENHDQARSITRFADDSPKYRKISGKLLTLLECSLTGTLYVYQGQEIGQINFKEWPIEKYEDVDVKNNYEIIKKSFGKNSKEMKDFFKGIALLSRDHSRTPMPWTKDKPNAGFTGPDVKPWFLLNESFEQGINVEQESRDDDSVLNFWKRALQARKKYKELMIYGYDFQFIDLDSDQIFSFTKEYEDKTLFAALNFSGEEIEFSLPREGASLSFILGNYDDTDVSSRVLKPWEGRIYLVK", "experiment": "Kinetics of α-glucosidase inhibition (Lineweaver–Burk, varying inhibitor and p-NPG concentrations)", "assay_type": "biochemical", "details": "for Inhibition Type (mode of α-glucosidase inhibition): Lineweaver–Burk plots, p-NPG 1–20 mM, enzyme 0.25 U/mL", "procedure": "The readings were reduced by absorbance of the sample blanks measured separately for each extract/polyphenol, which consisted of 50 µL of extract diluted in 150 µL of buffer solution only, while values obtained for uninhibited controls were reduced by absorbance values of the buffer solution (buffer blank). The activity was expressed as %inhibition. The half-maximal inhibitory concentration (IC50) values, defined as concentration of inhibitor necessary to reduce the rate of an enzymatic process by 50%, were calculated as follows: IC50=sample concentration ×50/% inhibition […]\nInhibition modes of α-glucosidase were determined according to Chu et al.. […] After 5 min of preincubation, the addition of the substrate started the reaction, and the changes in absorbance were measured at 30 s intervals. The uninhibited reaction was also run. The reaction was terminated after 10 min, and the absorbance values obtained in the kinetic study were used to create Lineweaver–Burk plots of 1/v against 1/[S].\nS3. Ability of α‐glucosidase inhibition by C. incanus\nFigure S1. Inhibition of α‐glucosidase by C. incanus extracts at different concentrations.\nThe absorbance values have been used to determine the changes in Michaelis con‐ stant (Km) and maximum velocity of reaction (Vmax). At first, the change in absorbance over time was converted to absorbance units per minute and then expressed as micromoles of chromogenic product (p‐Np) liberated in the enzymatic reaction in order to determine reaction velocity. The molar extinction coefficient of p‐NP used in the calculation was de‐ termined from its standard curve. The reciprocal of reaction velocity values of each tested compound and extract at different substrate concentrations were then plotted against the reciprocal of substrate concentrations. The intercepts of the created trendlines were uti‐ lized to calculate Km and Vmax values of each enzymatic reaction, and evaluation of altera‐"}, "[2]": {"biological_target": "T1, α-glucosidase from Saccharomyces cerevisiae", "experiment": "α-glucosidase inhibitory assay (p-NPG, 96-well microplate)", "assay_type": "biochemical", "details": "pure compound at 500 µg/mL, triplicate", "procedure": "Spectrophotometric measurements were conducted using a Multiskan GO Spectrophotometer (Thermo-Fisher Scientific). The %Inhibition was calculated from the formula % inhibition=(AControl− ASample/AControl )×100\nThe α-glucosidase inhibitory activity was conducted in a 96-well microplate using 4-nitrophenyl-α-D-glucopyranoside (p-NPG), as reported previously. […] […] The microplate with samples and enzyme solution was initially incubated for 5 min at 37 °C. […] The reaction was allowed to run for 10 min and afterward stopped by adding 50 µL of 0.1 M Na2CO3. The absorbance was measured at 405 nm. All of the samples were tested in triplicate.\nThe readings were reduced by absorbance of the sample blanks measured separately for each extract/polyphenol, which consisted of 50 µL of extract diluted in 150 µL of buffer solution only, while values obtained for uninhibited controls were reduced by absorbance values of the buffer solution (buffer blank). The activity was expressed as %inhibition. The half-maximal inhibitory concentration (IC50) values, defined as concentration of inhibitor necessary to reduce the rate of an enzymatic process by 50%, were calculated as follows: IC50=sample concentration ×50/% inhibition"}, "[3]": {"set-up": "method as in PMID 35458630, PMID 36673365", "details": "after consumption of ellagitannin-rich foods; cited from earlier work"}, "[4]": {"details": "read-out: IC50 [µM] α-glucosidase"}, "[5]": {"details": "read-out: IC50 [µg/mL] α-glucosidase (converted)"}},
  "note": "Where “and” joins values, the source holds several entries; their conditions need not be identical. Equal entries are not always repeated. Where two headings read alike, the source gives them in different places.",
  "data": [
    {"compound": "O=C1O[C@H]2[C@@H]3OC(=O)c4cc(O)c(O)c(O)c4-c4c(O)c(O)c5oc(=O)c6c(c(O)c(O)c7oc(=O)c4c5c76)-c4c(cc(O)c(O)c4O)C(=O)OC[C@H]3OC(O)[C@@H]2OC(=O)c2cc(O)c(O)c(O)c2-c2c1cc(O)c(O)c2O", "note": "(mixture of isomers) [Punicalagin, punicalagin]", "values": [
      {"measurement": "Inhibition Type (mode of α-glucosidase inhibition)", "setting": "[1]", "value": "competitive"},
      {"measurement": "IC50", "setting": "[1]; [4]", "value": "1.1 µM and 1.14 µM"},
      {"measurement": "IC50", "setting": "[1]; [5]", "value": 1.13, "unit": "µM"},
      {"measurement": "inhibition at 500 µg/mL", "setting": "[2]", "value": "> 70", "unit": "%"},
      {"measurement": "absorption into the bloodstream", "setting": "[3]", "value": "not absorbed into the bloodstream"}
    ]},
    {"compound": "O=C1OC[C@H]2OC(O)[C@H](O)[C@@H](O)[C@@H]2OC(=O)c2cc(O)c(O)c(O)c2-c2c(O)c(O)c3oc(=O)c4c(c(O)c(O)c5oc(=O)c2c3c54)-c2c1cc(O)c(O)c2O", "note": "(mixture of isomers) [punicalin]", "values": [
      {"measurement": "absorption into the bloodstream", "setting": "[3]", "value": "not absorbed into the bloodstream"}
    ]},
    {"compound": "C[C@H]1O[C@H](O[C@H]2[C@H](O)[C@@H](O)[C@@H](O[C@H]3[C@H](O)[C@@H](O)C(O)O[C@@H]3CO)O[C@@H]2CO)[C@H](O)[C@@H](O)[C@@H]1N[C@H]1C=C(CO)[C@@H](O)[C@H](O)[C@H]1O", "note": "(some centres unmarked) [Acarbose, acarbose, reference compound]", "values": [
      {"measurement": "Inhibition Type (mode of α-glucosidase inhibition)", "setting": "[1]", "value": "competitive"},
      {"measurement": "inhibition at 500 µg/mL", "setting": "[2]", "value": 13.7, "unit": "%"}
    ]},
    {"compound": "O=c1oc2c(O)c(O)cc3c(=O)oc4c(O)c(O)cc1c4c23", "note": "[Ellagic acid, ellagic acid]", "values": [
      {"measurement": "Inhibition Type (mode of α-glucosidase inhibition)", "setting": "[1]", "value": "mixed"},
      {"measurement": "IC50", "setting": "[1]; [4]", "value": "11 µM and 10.8 µM"},
      {"measurement": "IC50", "setting": "[1]; [5]", "value": 10.8, "unit": "µM"},
      {"measurement": "inhibition at 500 µg/mL", "setting": "[2]", "value": "> 70", "unit": "%"},
      {"measurement": "α-glucosidase %inhibition", "setting": "[2]", "value": 81.9, "unit": "%"}
    ]},
    {"compound": "O=C(O)c1cc(O)c(O)c(O)c1", "note": "[Gallic acid, gallic acid]", "values": [
      {"measurement": "Inhibition Type (mode of α-glucosidase inhibition)", "setting": "[1]", "value": "mixed"},
      {"measurement": "IC50", "setting": "[1]; [4]", "value": 686, "unit": "µM"},
      {"measurement": "IC50", "setting": "[1]; [5]", "value": "688 µM and 686 µM"},
      {"measurement": "inhibition at 500 µg/mL", "setting": "[2]", "value": "> 70", "unit": "%"},
      {"measurement": "α-glucosidase %inhibition", "setting": "[2]", "value": 82.8, "unit": "%"}
    ]},
    {"compound": "O=C(OC[C@H]1OC(O)[C@@H]2OC(=O)c3cc(O)c(O)c(O)c3-c3c(cc(O)c(O)c3O)C(=O)O[C@H]2[C@@H]1OC(=O)c1cc(O)c(O)c(O)c1-c1c(O)c(O)c2oc(=O)c3cc(O)c(O)c4oc(=O)c1c2c43)c1cc(O)c(O)c(O)c1", "note": "(some centres unmarked) [Terflavin A, terflavin A]", "values": [
      {"measurement": "IC50 [µg/mL] α-glucosidase", "setting": "[1]", "value": 1.19, "unit": "µg/mL"},
      {"measurement": "Inhibition Type (mode of α-glucosidase inhibition)", "setting": "[1]", "value": "mixed"},
      {"measurement": "IC50", "setting": "[1]; [4]", "value": 1.1, "unit": "µM"},
      {"measurement": "α-glucosidase %inhibition", "setting": "[2]", "value": "> 70", "unit": "%"}
    ]},
    {"compound": "O=C(/C=C/c1ccc(O)cc1)OC[C@H]1O[C@@H](Oc2c(-c3ccc(O)cc3)oc3cc(O)cc(O)c3c2=O)[C@H](O)[C@@H](O)[C@@H]1O", "note": "[Tiliroside, kaempferol-3-O-β-(6″-O-p-coumaroyl)glucoside]", "values": [
      {"measurement": "Inhibition Type (mode of α-glucosidase inhibition)", "setting": "[1]", "value": "mixed"},
      {"measurement": "IC50", "setting": "[1]; [4]", "value": 283, "unit": "µM"},
      {"measurement": "IC50", "setting": "[1]; [5]", "value": 283, "unit": "µM"},
      {"measurement": "inhibition at 500 µg/mL", "setting": "[2]", "value": "> 70", "unit": "%"},
      {"measurement": "α-glucosidase %inhibition", "setting": "[2]", "value": 73.6, "unit": "%"}
    ]},
    {"compound": "O=c1c(O[C@@H]2O[C@H](CO)[C@H](O)[C@H](O)[C@H]2O)c(-c2ccc(O)c(O)c2)oc2cc(O)cc(O)c12", "note": "[hyperoside, quercetin-3-O-β-galactoside]", "values": [
      {"measurement": "inhibition at 500 µg/mL", "setting": "[2]", "value": 26, "unit": "%"}
    ]},
    {"compound": "O=c1c(O)c(-c2ccc(O)cc2)oc2cc(O)cc(O)c12", "note": "[kaempferol]", "values": [
      {"measurement": "inhibition at 500 µg/mL", "setting": "[2]", "value": 17.6, "unit": "%"}
    ]},
    {"compound": "O=c1c(O)c(-c2ccc(O)c(O)c2)oc2cc(O)cc(O)c12", "note": "[quercetin]", "values": [
      {"measurement": "inhibition at 500 µg/mL", "setting": "[2]", "value": "30 to 40", "unit": "%"}
    ]},
    {"compound": "Cistusin", "values": [
      {"measurement": "IC50 [µg/mL] α-glucosidase", "setting": "[1]", "value": 0.83, "unit": "µg/mL"},
      {"measurement": "Inhibition Type (mode of α-glucosidase inhibition)", "setting": "[1]", "value": "mixed"},
      {"measurement": "IC50", "setting": "[1]; listed as cistusin, read-out: IC50 [µM] α-glucosidase", "value": 0.7, "unit": "µM"},
      {"measurement": "IC50", "setting": "[1]; [4]", "value": 0.66, "unit": "µM"},
      {"measurement": "α-glucosidase %inhibition", "setting": "[2]", "value": "> 70", "unit": "%"}
    ]}
  ]
}
